Experimental data published in US20250352629A1, “ADJUVANT FOR BACILLUS CALMETTE-GUERIN CANCER IMMUNOTHERAPY” (The Royal Institution for the Advancement of …, priority 2024, published 2025).
“And” between values parts separate entries of the source, which are not always exact repeats. Equal values may be shown once. “Also recorded” adds a separate entry of the source.

What was measured:
MB49 cells [1] = tested on: MB49 cells
B16-F10 cells = details: mouse, in vivo
MB49 cells [2] = details: mouse, in vivo
MB49 cells [3] = details: mouse, in vivo; remark: listed apart in the source
[4] = mouse, in vivo
bladder cancer = details: human, in vivo; cited from earlier work
[5] = tested on: HSCs (LKS+ cells) and immune cells in BM and bladder; details: mouse, in vivo

CC(=O)N[C@@H](CS)C(=O)O [NAC, N-Acetyl Cysteine]
effect of ROS scavenger on cytotoxic activity of trained neutrophils (MB49 cells [1]): abolished the cytotoxic activity

Bacillus Calmette-Guérin [BCG]
BM-LKS+ population (B16-F10 cells): significant expansion | tumor growth (MB49 cells [2]): significantly reduced tumor growth | increase in survival (MB49 cells [3]): 50% | survival (MB49 cells [3]): 50-70% and 50% | tumor growth / tumoral volume (histopathology, MRI, tumoral weight) (MB49 cells [3]): substantial reduction in tumoral volume; also recorded: reduced tumor growth; also recorded: significant tumor reduction | enhanced survival (MB49 cells [3]; iv): 40-50% | BCG dissemination to organs [4]: reached the spleen, draining lymph nodes, and BM | BCG elimination in urine [4]: eliminated in the urine | efficacy of BCG treatment in bladder cancer (bladder cancer): 30-50% | intolerance due to adverse effects (bladder cancer): about 20% | patients experiencing relapse (bladder cancer): up to 40% | patients unresponsive to BCG immunotherapy (bladder cancer): up to 50% | LKS+ population in BM, frequency and absolute number [5]: significant expansion | frequency and absolute number of monocytes in BM [5]: increased | frequency and absolute number of neutrophils in BM [5]: increased | frequency and absolute number of neutrophils in bladder [5]: increased | frequency and absolute numbers of dendritic cells in BM [5]: increased | frequency and absolute numbers of dendritic cells in bladder [5]: increased | frequency and absolute numbers of monocytes in bladder [5]: increased | frequency and total cell numbers of NK cells in bladder [5]: increased | frequency and total cell numbers of macrophages in bladder [5]: increased | frequency of lymphocytes / adaptive immune cells (CD4+ and CD8+ T cells) in bladder [5]: increased | proportions of long-term HSCs (LT-HSCs) in BM [5]: reduction | proportions of multipotent progenitors (MPPs) in BM [5]: increases | proportions of short-term HSCs (ST-HSCs) in BM [5]: increases

β-Glucan
tumor growth (MB49 cells [2]): developed tumors | increase in survival (MB49 cells [3]): 50% and 40% | survival (MB49 cells [3]): 40% | survival after neutrophil depletion (MB49 cells [3]): 10% | tumor growth / tumoral volume (histopathology, MRI, tumoral weight) (MB49 cells [3]): suppressing tumoral growth; also recorded: reduced tumor growth; also recorded: significant reduction in tumor volume | enhanced survival compared to PBS-control group (MB49 cells [3]; ip): 45% | frequency and absolute number of neutrophils in bladder [5]: significantly increased | frequency of lymphocytes / adaptive immune cells (CD4+ and CD8+ T cells) in bladder [5]: remained unchanged | frequency and total cell number of neutrophils in BM ([5]; ip): increased
